Test results reported in patent US20020137929A1, “1 - (3-heterocyclylphenyl) isothiourea, -isourea, -guanidine and -amidine herbicidal agents” (Intellectual Property Department, BASF Aktiengesellschaft, priority 1998, published 2002).

Experiments:
CYPSE (Flatsedge) = assay: Postemergence weed control under flooded paddy conditions; format: in vivo, Cyperus serotinus; settings: postemergence weeds, rated 3 to 4 weeks after treatment
In short: (§1)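 Containers holding 3–5 cm weeds and rice at 1.5–2.5 leaves are flooded to 1.5–3 cm above soil. Compound in 50/50 v/v aqueous/acetone is then added directly to the water, about 0.0313–0.500 kg/ha. Plants are kept in the greenhouse and rated 0–9 visually at 3–4 weeks.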

[1] = test system: GLXMAW (Soybean, Williams); assay: Postemergence herbicidal evaluation; format: in vivo, Glycine max, (L.) Merr. cv Williams
In short: (§2)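 Seedlings grown about two weeks were sprayed at 40 psi with compound dispersed in 50/50 acetone/water plus 0.5% TWEEN 20, at about 0.0156 to 0.500 kg/ha. Plants were kept in the greenhouse and scored 4–5 weeks later on a 0–9 visual scale against untreated controls.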

[2] = test system: ECHORC (Watergrass (Calif.)); assay: Postemergence weed control under flooded paddy conditions; format: in vivo, Echinochloa oryzoides; settings: postemergence weeds, rated 3 to 4 weeks after treatment
In short: as §1

[3] = test system: TRZAWR (Wheat, Winter, cv Riband); assay: Postemergence herbicidal evaluation; format: in vivo, Triticum aestivum
In short: as §2

[4] = test system: SAGPY (Arrowhead (Pygmaea)); assay: Postemergence weed control under flooded paddy conditions; format: in vivo, Sagittaria pygmaea; settings: postemergence weeds, rated 3 to 4 weeks after treatment
In short: as §1

SETVI (Foxtail, Green) [5] = assay: Preemergence herbicidal evaluation; format: in vivo, Setaria viridis; settings: rated 4-5 weeks after treatment
In short: (§3)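 Scores (0–9) reflect visual comparison with control plants for stand, vigor, malformation, size and chlorosis. Compound was applied to the soil after sowing, before emergence, as an aqueous acetone spray (about 0.0156–0.500 kg/ha), and cups were kept in a greenhouse for 4–5 weeks.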

SETVI (Foxtail, Green) [6] = assay: Postemergence herbicidal evaluation; format: in vivo, Setaria viridis
In short: as §2

CYPIR (Rice Flatsedge) = assay: Preemergence weed control under flooded paddy conditions; format: in vivo, Cyperus iria; settings: rated 3-4 weeks after treatment
In short: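 Flooded-pot preemergence screen with silt loam and seeds in the upper 0.5 cm. Dose about 0.0313 to 0.500 kg/ha, delivered into flood water; visual 0-9 score after 3 to 4 weeks.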

AMBEL (Ragweed, Common) = assay: Preemergence herbicidal evaluation; format: in vivo, Ambrosia artemisifolia; settings: rated 4-5 weeks after treatment
In short: as §3

GALAP (Galium) = assay: Preemergence herbicidal evaluation; format: in vivo, Galium aparine; settings: rated 4-5 weeks after treatment
In short: as §3

[7] = test system: CHEAL (Lambsquarters, Common); assay: Postemergence herbicidal evaluation; format: in vivo, Chenopodium album
In short: as §2

ORYSAT (Rice, Tebonnet) = assay: Postemergence herbicidal evaluation; format: in vivo, Oryza sativa, (L.) Tebonnet
In short: as §2

ZEAMX (Corn, Field) = assay: Postemergence herbicidal evaluation; format: in vivo, Zea mays
In short: as §2

ABUTH (Velvetleaf) = assay: Postemergence herbicidal evaluation; format: in vivo, Abutilon theophrasti
In short: as §2

CCOC(=O)CN1C(=O)C(CC(=O)OC(C)C)SC1=Nc1cc(-n2c(=O)cc(C(F)(F)F)n(C)c2=O)c(F)cc1Cl (stereo not drawn) [Compound 60, 2-{{2-Chloro-5-[3,6-dihydro-3-methyl-2,6-dioxo-4-(trifluoromethyl)-1(2H)-pyrimidinyl]-4-fluoro-phenyl}imino}-4-oxo-3,5-thiazolidinediacetic acid, 3-ethyl isopropyl ester]
4.0: Herbicidal rating CYPSE (CYPSE (Flatsedge); Rate 0.1250 kg/ha) | Herbicidal rating CYPSE (CYPSE (Flatsedge); Rate 0.2500 kg/ha) | Herbicidal rating SAGPY ([4]; Rate 0.0625 kg/ha) | Postemergence herbicidal rating SETVI (SETVI (Foxtail, Green) [6]; Rate 0.0315 kg/ha) | Postemergence herbicidal rating CHEAL ([7]; Rate 0.0158 kg/ha) | Postemergence herbicidal rating CHEAL ([7]; Rate 0.0315 kg/ha)
2.0: Herbicidal rating CYPSE (CYPSE (Flatsedge); Rate 0.0313 kg/ha) | Herbicidal rating CYPSE (CYPSE (Flatsedge); Rate 0.0625 kg/ha) | Preemergence herbicidal rating AMBEL (AMBEL (Ragweed, Common); rate 0.0625 kg/ha)
0.0: Preemergence herbicidal rating SETVI (SETVI (Foxtail, Green) [5]; rate 0.0156 kg/ha) | Postemergence herbicidal rating SETVI (SETVI (Foxtail, Green) [6]; Rate 0.0158 kg/ha) | Preemergence herbicidal rating AMBEL (AMBEL (Ragweed, Common); rate 0.0156 kg/ha) | Preemergence herbicidal rating AMBEL (AMBEL (Ragweed, Common); rate 0.0313 kg/ha) | Preemergence herbicidal rating GALAP (GALAP (Galium); rate 0.0156 kg/ha) | Preemergence herbicidal rating GALAP (GALAP (Galium); rate 0.0313 kg/ha) | Preemergence herbicidal rating GALAP (GALAP (Galium); rate 0.0625 kg/ha) | Preemergence herbicidal rating GALAP (GALAP (Galium); rate 0.1250 kg/ha) | Preemergence herbicidal rating GALAP (GALAP (Galium); rate 0.2500 kg/ha)
6.0: CYPIR herbicidal effect rating (CYPIR (Rice Flatsedge); 0.1250 kg/ha) | CYPIR herbicidal effect rating (CYPIR (Rice Flatsedge); 0.2500 kg/ha)
7.0: Postemergence herbicidal rating GLXMAW ([1]; Rate 0.0630 kg/ha) | Herbicidal rating ECHORC ([2]; Rate 0.0313 kg/ha) | Preemergence herbicidal rating AMBEL (AMBEL (Ragweed, Common); rate 0.1250 kg/ha) | Preemergence herbicidal rating AMBEL (AMBEL (Ragweed, Common); rate 0.2500 kg/ha)
8.0: Preemergence herbicidal rating SETVI (SETVI (Foxtail, Green) [5]; rate 0.5000 kg/ha)
4.5: Postemergence herbicidal rating TRZAWR ([3]; Rate 0.0158 kg/ha) | Postemergence herbicidal rating TRZAWR ([3]; Rate 0.0315 kg/ha) | Postemergence herbicidal rating TRZAWR ([3]; Rate 0.0630 kg/ha) | Preemergence herbicidal rating SETVI (SETVI (Foxtail, Green) [5]; rate 0.1250 kg/ha) | Preemergence herbicidal rating SETVI (SETVI (Foxtail, Green) [5]; rate 0.2500 kg/ha)
9.0: Herbicidal rating ECHORC ([2]; Rate 0.0625 kg/ha) | Herbicidal rating ECHORC ([2]; Rate 0.1250 kg/ha) | Herbicidal rating ECHORC ([2]; Rate 0.2500 kg/ha) | Herbicidal rating SAGPY ([4]; Rate 0.1250 kg/ha) | Herbicidal rating SAGPY ([4]; Rate 0.2500 kg/ha) | Preemergence herbicidal rating AMBEL (AMBEL (Ragweed, Common); rate 0.5000 kg/ha) | Postemergence herbicidal rating CHEAL ([7]; Rate 0.0630 kg/ha) | Postemergence herbicidal rating ABUTH (ABUTH (Velvetleaf); Rate 0.0158 kg/ha) | Postemergence herbicidal rating ABUTH (ABUTH (Velvetleaf); Rate 0.0315 kg/ha) | Postemergence herbicidal rating ABUTH (ABUTH (Velvetleaf); Rate 0.0630 kg/ha)
5.0: Postemergence herbicidal rating SETVI (SETVI (Foxtail, Green) [6]; Rate 0.0630 kg/ha) | Postemergence herbicidal rating ORYSAT (ORYSAT (Rice, Tebonnet); Rate 0.0630 kg/ha) | Postemergence herbicidal rating ZEAMX (ZEAMX (Corn, Field); Rate 0.0158 kg/ha) | Postemergence herbicidal rating ZEAMX (ZEAMX (Corn, Field); Rate 0.0315 kg/ha)
0.5: Preemergence herbicidal rating SETVI (SETVI (Foxtail, Green) [5]; rate 0.0313 kg/ha) | Preemergence herbicidal rating SETVI (SETVI (Foxtail, Green) [5]; rate 0.0625 kg/ha)
3.0: Herbicidal rating SAGPY ([4]; Rate 0.0313 kg/ha) | CYPIR herbicidal effect rating (CYPIR (Rice Flatsedge); 0.0313 kg/ha) | CYPIR herbicidal effect rating (CYPIR (Rice Flatsedge); 0.0625 kg/ha) | Postemergence herbicidal rating ORYSAT (ORYSAT (Rice, Tebonnet); Rate 0.0158 kg/ha) | Postemergence herbicidal rating ORYSAT (ORYSAT (Rice, Tebonnet); Rate 0.0315 kg/ha)
6.5: Postemergence herbicidal rating GLXMAW ([1]; Rate 0.0158 kg/ha) | Postemergence herbicidal rating GLXMAW ([1]; Rate 0.0315 kg/ha)
5.5: Postemergence herbicidal rating ZEAMX (ZEAMX (Corn, Field); Rate 0.0630 kg/ha)
